Measurements taken from patent US11351178B2, “Selective HDAC6 inhibitors” (ITALFARMACO S.P.A., priority 2017, dated 2022).
Like-named read-outs stand apart in the source and are kept apart here.

Legend:
[1] = system: peripheral blood mononuclear cells (PBMCs); test: Cytotoxicity on PBMCs (CellTiter 96); format: cell-based; settings: PBMC, 72 h; read-out: PBMC TOXICITY (72 h)
Method in brief: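 Mitochondrial-function readout (CellTiter 96 Aqueous One) after 72 h compound exposure, begun 24 h post-seeding. Dose ranges: 697 cells, 1 to 10000 nM at 2×10^4 cells/well; PBMCs, 1.5 to 10000 nM at 5×10^5 cells/well.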

[2] = Stability to Phase I metabolism in rat S9 liver fraction; format: in vitro ADME; settings: after 90 min, 37° C.
Method in brief: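 Phase I stability in human and rat hepatic S9 at 37 °C, sampled up to 90 min. Samples were stopped with acidified acetonitrile on ice, then quantified by HPLC-UV or LC-MS/MS.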

Stability in rat plasma = format: in vitro ADME; settings: after 4 hours, 37° C.
Method in brief: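 Compounds incubated at 37° C in rat or human plasma at 50 μM (UV/HPLC) or 1 or 2 μM (LC-MS/MS) for 0–4 h. Reaction stopped with acidified acetonitrile on ice; percent remaining versus initial amount and plasma half-life calculated.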

recombinant human HDAC6 = target: T1, recombinant human HDAC6 (Homo sapiens, UniProt Q9UBN7); test: Enzymatic screening on recombinant human HDAC6; format: biochemical; settings: read-out: HDAC6 IC50
T1 sequence (Q9UBN7 1-1215): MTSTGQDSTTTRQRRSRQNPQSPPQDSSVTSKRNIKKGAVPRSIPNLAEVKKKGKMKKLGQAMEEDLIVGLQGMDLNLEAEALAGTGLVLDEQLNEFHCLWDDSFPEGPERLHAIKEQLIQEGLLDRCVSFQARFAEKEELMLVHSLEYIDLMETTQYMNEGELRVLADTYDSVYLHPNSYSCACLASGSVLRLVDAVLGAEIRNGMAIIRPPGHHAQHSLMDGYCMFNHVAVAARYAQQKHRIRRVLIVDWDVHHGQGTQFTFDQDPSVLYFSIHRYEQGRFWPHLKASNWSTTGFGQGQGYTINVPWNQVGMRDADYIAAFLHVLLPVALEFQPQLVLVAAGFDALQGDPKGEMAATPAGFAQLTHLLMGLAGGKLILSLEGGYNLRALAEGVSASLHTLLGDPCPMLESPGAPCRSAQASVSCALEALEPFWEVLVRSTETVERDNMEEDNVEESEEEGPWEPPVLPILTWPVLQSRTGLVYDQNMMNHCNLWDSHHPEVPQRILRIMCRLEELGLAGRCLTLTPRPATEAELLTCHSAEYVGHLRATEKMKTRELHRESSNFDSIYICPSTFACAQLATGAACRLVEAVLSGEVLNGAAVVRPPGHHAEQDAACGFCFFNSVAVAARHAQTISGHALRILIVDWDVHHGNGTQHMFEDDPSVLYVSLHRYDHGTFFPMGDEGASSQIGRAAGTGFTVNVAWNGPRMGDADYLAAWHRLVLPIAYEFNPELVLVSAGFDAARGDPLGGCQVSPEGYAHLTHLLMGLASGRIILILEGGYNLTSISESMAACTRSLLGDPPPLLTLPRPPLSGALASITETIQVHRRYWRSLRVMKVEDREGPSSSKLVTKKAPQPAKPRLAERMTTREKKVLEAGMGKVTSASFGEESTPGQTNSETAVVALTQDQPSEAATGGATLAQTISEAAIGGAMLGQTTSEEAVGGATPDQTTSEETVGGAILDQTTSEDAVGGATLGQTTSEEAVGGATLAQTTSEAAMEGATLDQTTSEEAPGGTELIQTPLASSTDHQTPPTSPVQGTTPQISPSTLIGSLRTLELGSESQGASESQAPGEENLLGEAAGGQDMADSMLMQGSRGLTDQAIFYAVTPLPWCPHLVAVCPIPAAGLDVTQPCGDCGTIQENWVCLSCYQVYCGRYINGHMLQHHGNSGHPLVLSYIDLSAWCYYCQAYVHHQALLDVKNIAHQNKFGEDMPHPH
Method in brief: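 Deacetylase activity of recombinant human isoforms is measured with FLUOR DE LYS, FLUOR DE LYS-Green or trifluoroacetyl-L-lysine substrates, supplied at 2× in 25 mM Tris-HCl, pH 8, 130 mM NaCl, 0.05% Tween-20, 10% glycerol. Both the enzyme-compound preincubation, of isoform-specific length, and the substrate reaction run at 30 °C.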

recombinant human HDAC3 = target: T2, recombinant human HDAC3 (Homo sapiens, UniProt O15379); test: Enzymatic screening on recombinant human HDAC3; format: biochemical; settings: Table 3
T2 construct: purchased BPS 50003
Protocol: Enzymatic activity on recombinant human HDAC6 and HDAC3 was evaluated (Table 2) for each synthesized compound.
(§1) After a period of incubation at 30° C. (incubation times vary for different isoforms and are shown in table 1) 25 μL of solution containing the substrate were added. As substrate, FLUOR DE LYS® deacetylase substrate (Enzo Life Sciences, cat #BML-K1104, FdL), FLUOR DE LYS®-Green substrate (Enzo Life Sciences, cat #BML-K1572 FdL_G) and trifluoroacetyl-L-lysine (Tfal)-2× concentrated solution in 25 mM Tris-HCl, pH 8, 130 mM NaCl 0.05% Tween-20 10% glycerol) were used. Following a reaction period at 30° C.

HDAC1 = target: T3, HDAC1 (Homo sapiens, UniProt Q13547); test: Enzymatic test HDAC1; format: biochemical; settings: Table 3
T3 construct: purchased BPS 50051

HDAC11 = target: T4, HDAC11 (Homo sapiens, UniProt Q96DB2); test: Enzymatic test HDAC11; format: biochemical; settings: Table 3
T4 construct: purchased BML SE560
T4 sequence (Q96DB2 1-347): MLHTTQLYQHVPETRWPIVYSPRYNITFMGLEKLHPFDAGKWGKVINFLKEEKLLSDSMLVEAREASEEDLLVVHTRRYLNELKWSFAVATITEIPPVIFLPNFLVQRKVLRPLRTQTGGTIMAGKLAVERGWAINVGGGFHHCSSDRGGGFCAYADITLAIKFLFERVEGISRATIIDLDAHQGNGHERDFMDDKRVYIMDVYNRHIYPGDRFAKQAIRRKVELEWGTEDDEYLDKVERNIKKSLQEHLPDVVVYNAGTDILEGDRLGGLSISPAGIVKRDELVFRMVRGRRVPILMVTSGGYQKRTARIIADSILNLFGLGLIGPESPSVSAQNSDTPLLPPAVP
Protocol: as §1

T2 sequence (O15379 whole entry): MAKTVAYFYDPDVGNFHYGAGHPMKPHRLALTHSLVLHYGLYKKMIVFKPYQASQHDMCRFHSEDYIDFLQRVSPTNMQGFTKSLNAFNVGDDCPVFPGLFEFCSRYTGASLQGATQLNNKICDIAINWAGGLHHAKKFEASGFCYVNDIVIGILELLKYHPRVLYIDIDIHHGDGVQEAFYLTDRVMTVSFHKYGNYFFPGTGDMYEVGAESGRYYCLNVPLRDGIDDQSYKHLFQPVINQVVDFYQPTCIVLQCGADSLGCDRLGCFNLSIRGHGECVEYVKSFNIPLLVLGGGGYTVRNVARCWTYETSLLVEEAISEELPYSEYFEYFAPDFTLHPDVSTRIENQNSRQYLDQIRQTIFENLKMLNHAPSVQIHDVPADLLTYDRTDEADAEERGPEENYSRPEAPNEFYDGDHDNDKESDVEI
T2 sequence (Q9Y618 395-489 partner limits assumed): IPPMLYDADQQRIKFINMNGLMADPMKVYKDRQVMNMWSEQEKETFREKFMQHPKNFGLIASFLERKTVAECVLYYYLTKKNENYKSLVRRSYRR
T3 sequence (Q13547 whole entry): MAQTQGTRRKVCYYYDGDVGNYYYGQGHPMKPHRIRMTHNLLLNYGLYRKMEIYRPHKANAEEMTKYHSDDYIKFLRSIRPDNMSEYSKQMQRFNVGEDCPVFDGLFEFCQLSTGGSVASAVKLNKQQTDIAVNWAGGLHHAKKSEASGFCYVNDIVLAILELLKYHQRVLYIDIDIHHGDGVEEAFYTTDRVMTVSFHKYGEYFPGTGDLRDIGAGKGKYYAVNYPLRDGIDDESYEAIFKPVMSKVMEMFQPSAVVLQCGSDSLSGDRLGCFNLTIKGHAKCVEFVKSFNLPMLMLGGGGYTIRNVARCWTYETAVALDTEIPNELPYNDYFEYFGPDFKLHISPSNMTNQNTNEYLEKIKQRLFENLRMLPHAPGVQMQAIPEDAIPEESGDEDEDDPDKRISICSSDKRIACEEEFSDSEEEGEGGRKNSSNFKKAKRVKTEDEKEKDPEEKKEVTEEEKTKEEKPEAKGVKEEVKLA

| residual percentage in rat S9 fraction [2] [%] | residual percentage in rat plasma (Stability in rat plasma) [%] | IC50 (recombinant human HDAC6; Table 2) [nM] | IC50 (recombinant human HDAC6; Table 3) [nM] | IC50 (recombinant human HDAC3) [nM] | IC50 (HDAC1) [nM] | IC50 (HDAC11) [nM] | SMILES | IC50 [1] [nM] |
| --- | --- | --- | --- | --- | --- | --- | --- | --- |
| 90 | 78 | 17 |  |  |  |  | O=C(NO)c1cc(F)c(Cn2nnnc2-c2ncccn2)c(F)c1 [comp. 125, 3,5-difluoro-4-[(5-pyrimidin-2-yltetrazol-1-yl)methyl]benzenecarbohydroxamic acid] | > 10000 |
| 2 | 52 | 3 | 3 | 138 | 232 | 225 | O=C(NO)c1ccc(Cn2nnc(-c3ccccc3F)n2)cc1 [comp. 33, 4-[[5-(2-fluorophenyl)tetrazol-2-yl]methyl]benzenecarbohydroxamic acid] |  |
| 88 | 89 | 61 | 61 | 8930 | 1010 | 2090 | Cn1c(Sc2c(F)cc(C(=O)NO)cc2F)nnc1C(c1ccccc1)c1ccccc1 [comp. 98, 4-[(5-benzhydryl-4-methyl-1,2,4-triazol-3-yl)sulfanyl]-3,5-difluoro-benzenecarbohydroxamic acid] |  |
| 68 | 90 | 10 | 10 | 373 | 426 | 568 | Nn1c(Sc2ccc(C(=O)NO)cc2)nnc1-c1ccc(OC(F)F)cc1 [comp. 28, 4-[[4-amino-5-[4-(difluoromethoxy)phenyl]-1,2,4-triazol-3-yl]sulfanyl]benzenecarbohydroxamic acid] |  |
| 8 | 88 | 6 | 6 | 1860 | 2410 | 975 | O=C(NO)c1cc(F)c(Cn2nnc(-c3cccs3)n2)c(F)c1 [comp. 65, 3,5-difluoro-4-[[5-(2-thienyl)tetrazol-2-yl]methyl]benzenecarbohydroxamic acid] |  |
| 90.9 | 96.7 | 4 | 4 | 2490 | 2890 | 1470 | O=C(NO)c1cc(F)c(Cn2nnnc2-c2ccccn2)c(F)c1 [comp. 13, 3,5-difluoro-N-hydroxy-4-((5-(pyridin-2-yl)-1H-tetrazol-1-yl)methyl)benzamide] |  |
|  |  | 2 | 2 | 154 | 254 | 245 | O=C(NO)c1ccc(Cn2nnc(-c3cccs3)n2)cc1 [comp. 50, 4-[[5-(2-thienyl)tetrazol-2-yl]methyl]benzenecarbohydroxamic acid] |  |
| 8 | 77 | 11 | 11 | 568 | 616 | 486 | O=C(NO)c1ccc(Cn2nnc(-c3ccc(C(F)(F)F)cc3)n2)cc1 [comp. 23, 4-[[5-[4-(trifluoromethyl)phenyl]tetrazol-2-yl]methyl]benzenecarbohydroxamic acid] |  |
| 32 | 77 | 16 | 16 | 1870 | 4640 | 2820 | CN(C)c1cccc(-c2nnc(Sc3c(F)cc(C(=O)NO)cc3F)n2C)c1 [comp. 80, 4-[[5-[3-(dimethylamino)phenyl]-4-methyl-1,2,4-triazol-3-yl]sulfanyl]-3,5-difluoro-benzenecarbohydroxamic acid] |  |
|  |  | 7 |  |  |  |  | Cn1c(Sc2c(F)cc(C(=O)NO)cc2F)nnc1-c1ccc(CN2CCCCCC2)cc1 [comp. 168, 4-[[5-[4-(azepan-1-ylmethyl)phenyl]-4-methyl-1,2,4-triazol-3-yl]sulfanyl]-3,5-difluoro-benzenecarbohydroxamic acid] | 7000 |

| SMILES | residual percentage in rat S9 fraction [2] [%] | residual percentage in rat plasma (Stability in rat plasma) [%] | IC50 (recombinant human HDAC6; Table 2) [nM] | IC50 (recombinant human HDAC6; Table 3) [nM] | IC50 (recombinant human HDAC3) [nM] | IC50 (HDAC1) [nM] | IC50 (HDAC11) [nM] | IC50 [1] [nM] |
| --- | --- | --- | --- | --- | --- | --- | --- | --- |
| O=C(NO)c1ccc(Cn2nnnc2-c2cccs2)cc1 [comp. 8, N-hydroxy-4-((5-(thiophen-2-yl)-1H-tetrazol-1-yl)methyl)benzamide] | 82 | 62 |  |  |  |  |  | 3500 |
| Cn1c(Sc2c(F)cc(C(=O)NO)cc2F)nnc1-c1cccc(CN2CCCCCC2)c1 [comp. 167, 4-[[5-[3-(azepan-1-ylmethyl)phenyl]-4-methyl-1,2,4-triazol-3-yl]sulfanyl]-3,5-difluoro-benzenecarbohydroxamic acid] | 55 | 85 | 6 |  |  |  |  | > 10000 |
| Cn1c(Sc2c(F)cc(C(=O)NO)cc2F)nnc1-c1cccnn1 [comp. 179, 3,5-difluoro-4-[(4-methyl-5-pyridazin-3-yl-1,2,4-triazol-3-yl)sulfanyl]benzenecarbohydroxamic acid] | 58 | 98 | 11 |  |  |  |  | > 10000 |
| Cn1c(Sc2c(F)cc(C(=O)NO)cc2F)nnc1-c1ncccc1F [comp. 180, 3,5-difluoro-4-[[5-(3-fluoro-2-pyridyl)-4-methyl-1,2,4-triazol-3-yl]sulfanyl]benzenecarbohydroxamic acid] | 70 | 100 | 6 |  |  |  |  | > 10000 |
| Nc1ccc(-c2nnn(Cc3c(F)cc(C(=O)NO)cc3F)n2)cc1 [comp. 171, 4-[[5-(4-aminophenyl)tetrazol-2-yl]methyl]-3,5-difluoro-benzenecarbohydroxamic acid] | 48 | 77 | 4 |  |  |  |  | > 10000 |
| O=C(NO)c1cc(F)c(Cc2nnc(-c3ccncc3)s2)c(F)c1 [compound 195, 3,5-difluoro-4-[[5-(4-pyridyl)-1,3,4-thiadiazol-2-yl]methyl]benzenecarbohydroxamic acid] | 32 | 84 | 4 |  |  |  |  | > 10000 |
